Measured values reported in patent US20030027867A1, “Use of R-NSAID compounds for anti-HIV treatment” (Myriad Genetics, Incorporated, priority 2001, published 2003).

What was measured:
[1] = test system: HIV-1; assay: microbe, parasite or virus in culture; details: Human immunodeficiency virus 1, PBMC, 168 h
Experimental: (§1) R-flurbiprofen was supplied in powder form from Catalytica Pharmaceutical Inc., Greenville, N.C. and was solubilized in DMSO to yield a 200 mM stock solution. For these studies, the compound was tested at a high-test concentration of 1000 μM along with eight serial half-logarithmic dilutions (1000 μM down to 0.01 μM). AZT was used as a positive control antiviral compound.
(§2) Fresh human blood was obtained commercially from Interstate Blood Bank, Inc. (Memphis, Tenn.). […] The laboratory-adapted HIV-1IIIB strain was propagated and tittered in fresh human PBMCs; pre-titered aliquots of HIV-1ROJO and Hiv-1IIIB were removed from the freezer (−80° C.) and thawed rapidly to room temperature in a biological safety cabinet immediately before use. Phytohemagglutinin (PHA-P) was obtained from Sigma (St. Louis, Mo.) and recombinant IL-2 was obtained from Amgen (San Francisco, Calif.).
(§3) Fresh human PBMCs were isolated from screened donors, seronegative for HIV and HBV. Leukophoresed blood was diluted 1:1 with Dulbecco's phosphate buffered saline (PBS), layered over 14 mL of Ficoll-Hypaque density gradient in a 50 mL centrifuge tube and then centrifuged for 30 minutes at 600×g. Banded PBMCs were aspirated from the resulting interface and subsequently washed 2× with PBS by low speed centrifugation. After the final wash, cells were enumerated by trypan blue exclusion and re-suspended at 1×10^7 cells/mL in RPMI 1640 supplemented with 15% Fetal Bovine Serum (FBS), 2 mM L-glutamine, 4 μg/mL PHA-P. The cells were allowed to incubate for 48-72 hours at 37° C. After incubation, PBMCs were centrifuged and reset in RPMI 1640 with 15% FBS, 2 mM L-glutamine, 100 U/ml penicillin, 100 μg/mL streptomycin, 10 μg/mL gentamycin, and 20 U/mL recombinant human IL-2. PBMCs were maintained in this medium at a concentration of 1-2×10^6 cells/mL with biweekly medium changes until used in the assay protocol.
(§4) For the standard PBMC assay, PHA-P stimulated cells from at least two normal donors were pooled, diluted in fresh medium to a final concentration of 1×10^6 cells/mL, and plated in the interior wells of 96 well round bottom microplate at 50 μL/well (5×10^4 cells/well). Test drug dilutions were prepared at a 2× concentration in microtiter tubes and 100 μL of each concentration was placed in appropriate wells in a standard format. 50 μL of a predetermined dilution of virus stock was placed in each test well (final MOI ≈0.1). Wells with cells and virus alone were used for virus control. Separate plates were prepared identically without virus for drug cytotoxicity studies using an XTT assay system. The PBMC cultures were maintained for seven days following infection, at which time cell-free supernate samples were collected and assayed for reverse transcriptase activity as described below. […]

[2] = in vitro; type: cell-based; details: human
Experimental: At assay termination the assay plates were stained with the soluble tetrazolium-based dye MTS (CellTiter Reagent, Promega) to determine cell viability and quantify compound toxicity. MTS is metabolized by the mitochondria enzymes of metabolically active cells to yield a soluble formazan product, allowing the rapid quantitative analysis cell viability and compound cytotoxicity. […] At termination of the assay, 20 μl of MTS reagent was added per well. The wells were incubated overnight for the HIV cytoprotection assay at 37° C. The incubation intervals were chosen based on empirically determined times for optimal dye reduction in each cell type. Adhesive plate sealers were used in place of the lids, the sealed plate was inverted several times to mix the soluble formazan product and the plate was read spectrophotometrically at 490 nm with a Molecular Devices Vmax plate reader.

[3] = test system: HIV-1; details: TC50/IC50 in human PBMCs
Experimental: as §1, §2, §3, §4

Compound	IC50 [1] [µM]	CC50 at 7 days [2] [µM]	Therapeutic Index [3]
Cc1cn([C@H]2C[C@H](N=[N+]=[N-])[C@@H](CO)O2)c(=O)[nH]c1=O [AZT, 3′-Azido-3′-deoxythymidine]	0.01	> 4	>400.00
CC(C(=O)O)c1ccc(-c2ccccc2)c(F)c1 (stereo not drawn) [R-flurbiprofen, 3-fluoro-4-phenylhydratropic acid]	238	731	3.1
